Six compounds from ChEMBL document CHEMBL5356952, “Design, synthesis, and biological evaluation of deuterated indolepropionic acid derivatives as novel long-acting pan PPARα/γ/δ agonists” (Bioorg Med Chem, 2023) can be followed below.

The target in data set [1] is T1, Peroxisome proliferator-activated receptor alpha (Homo sapiens, UniProt Q07869).
T1 sequence (Q07869 whole entry): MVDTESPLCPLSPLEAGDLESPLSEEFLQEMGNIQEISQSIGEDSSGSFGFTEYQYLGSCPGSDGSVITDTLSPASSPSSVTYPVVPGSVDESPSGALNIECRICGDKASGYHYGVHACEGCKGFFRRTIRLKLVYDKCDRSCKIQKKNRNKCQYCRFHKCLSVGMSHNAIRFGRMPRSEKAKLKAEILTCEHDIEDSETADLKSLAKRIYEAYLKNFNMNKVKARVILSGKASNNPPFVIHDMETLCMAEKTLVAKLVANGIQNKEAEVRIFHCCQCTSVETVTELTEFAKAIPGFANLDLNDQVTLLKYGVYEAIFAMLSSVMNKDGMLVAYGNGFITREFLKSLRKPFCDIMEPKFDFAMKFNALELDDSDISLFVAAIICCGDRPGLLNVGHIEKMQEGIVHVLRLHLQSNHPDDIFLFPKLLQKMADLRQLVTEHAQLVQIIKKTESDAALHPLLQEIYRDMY
The data set is described as follows: Agonist activity at PPARalpha (unknown origin).

Data set [2] concerns the target T2, Peroxisome proliferator-activated receptor delta (Homo sapiens, UniProt Q03181).
T2 sequence (Q03181 whole entry): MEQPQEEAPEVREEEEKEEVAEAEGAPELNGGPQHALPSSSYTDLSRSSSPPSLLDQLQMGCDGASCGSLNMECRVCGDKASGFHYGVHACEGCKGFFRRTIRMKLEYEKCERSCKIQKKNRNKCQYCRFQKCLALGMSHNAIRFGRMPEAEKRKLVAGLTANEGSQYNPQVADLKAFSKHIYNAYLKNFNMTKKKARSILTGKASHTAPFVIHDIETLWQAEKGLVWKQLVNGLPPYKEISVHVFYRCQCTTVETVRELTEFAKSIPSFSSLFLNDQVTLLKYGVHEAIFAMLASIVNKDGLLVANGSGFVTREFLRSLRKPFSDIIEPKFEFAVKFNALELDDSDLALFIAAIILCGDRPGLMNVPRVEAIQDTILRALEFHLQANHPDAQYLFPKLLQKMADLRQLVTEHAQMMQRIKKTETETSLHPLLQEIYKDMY
The data set can be described thus: Agonist activity at PPARdelta (unknown origin).

Data set [3] is described as follows: Metabolic stability in rat liver microsomes assessed as half life preincubated for 5 mins followed by NADPH addition and measured upto 60 mins by LC-MS analysis. Type of data set: ADME, Microsome. The following applies: time < 65 min. In general terms: Liver microsomes are vesicles of endoplasmic reticulum, rich in cytochrome P450 enzymes.
The nature of data set [4]: Half life in rat. It is filed as ADME. Conditions: in vivo.
Data set [5] addresses T3, Peroxisome proliferator-activated receptor gamma (Homo sapiens, UniProt P37231).
T3 sequence (P37231 whole entry): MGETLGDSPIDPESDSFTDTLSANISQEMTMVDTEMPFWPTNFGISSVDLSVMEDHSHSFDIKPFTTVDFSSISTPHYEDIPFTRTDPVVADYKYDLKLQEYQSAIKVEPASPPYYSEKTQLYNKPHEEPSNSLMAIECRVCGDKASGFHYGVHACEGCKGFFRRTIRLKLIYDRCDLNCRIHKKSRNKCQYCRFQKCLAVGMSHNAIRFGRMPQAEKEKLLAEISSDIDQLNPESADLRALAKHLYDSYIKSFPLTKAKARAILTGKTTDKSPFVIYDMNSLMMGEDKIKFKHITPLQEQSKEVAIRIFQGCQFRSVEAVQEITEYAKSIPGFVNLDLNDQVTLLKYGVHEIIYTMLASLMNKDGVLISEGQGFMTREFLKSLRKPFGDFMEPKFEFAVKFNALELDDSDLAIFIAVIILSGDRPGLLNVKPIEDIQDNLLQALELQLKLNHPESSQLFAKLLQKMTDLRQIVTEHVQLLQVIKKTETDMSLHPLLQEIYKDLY
The data set is described as follows: Agonist activity at PPARgamma (unknown origin).

SMILES strings stand for the structures.

With `[2H]C([2H])(Cc1cn(S(=O)(=O)c2ccc(OC)cc2)c2ccc(OC)cc12)C(=O)O`, the figures for the EC50 in data set [1] and in data set [2] were 0.98 µM and 0.85 µM, respectively. Moreover, the half-life (usually the time in which the quantity being followed falls by half) in data set [3] is 1.16 h.
With `COc1ccc(S(=O)(=O)n2cc(CCC(=O)O)c3cc(OC)ccc32)cc1` [INDEGLITAZAR], the results for the EC50 in data set [1] and in data set [2] were 1.15 µM and 0.94 µM, respectively. Also, the half-life in data set [4] is 1.4 h; in data set [3], 0.775 h.
Regarding `[2H]C([2H])(Cc1cn(S(=O)(=O)c2ccc3c(c2)CCO3)c2ccc(OC)cc12)C(=O)O`, in data set [3], the half-life stood at 1.12 h.
On to `[2H]C([2H])(Cc1cn(S(=O)(=O)c2ccc(OC)cc2)c2ccc(C3CC3)cc12)C(=O)O`, for which the EC50 (as a rule, the concentration that produces a half-maximal response) in data set [1] was 2.52 µM; in data set [2] it was 2.97 µM. Further, the half-life in data set [3] was found to be 1.14 h.
`[2H]C([2H])(Cc1cn(S(=O)(=O)c2ccc(C3CC3)cc2)c2ccc(OC)cc12)C(=O)O`: in data set [3], the half-life came out at 1.06 h.
Regarding `[2H]C([2H])(Cc1cn(S(=O)(=O)c2ccc(OC(F)(F)F)cc2)c2ccc(OC)cc12)C(=O)O`, the EC50 in data set [5] was found to be 0.95 µM; in data set [1], 1.26 µM. The half-life in data set [3] was determined as 1.23 h.
